According to PubChem BioAssay AID1645865 (Buhrlage Lab, Dana-Farber Cancer Institute and Novartis …, 2021):
Calls of active or inactive are those of the source.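 Rule for the calls: active = maximal inhibition of the USP30 enzyme reaching 30% or more across the dose series; inactive = the rest.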

These molecules were tested against Ubiquitin carboxyl-terminal hydrolase 30 (Homo sapiens) (UniProt Q70CQ3) (assay: ubiquitin-specific protease 30 DUB inhibitors, concentration-effect, biochemical, validation of primary actives (AID 1645865)). Settings: purified USP30, Ub-rhodamine cleavage, fluorescence, 2 h.
Chain of Ubiquitin carboxyl-terminal hydrolase 30 (Homo sapiens) (Q70CQ3 whole entry, looked up): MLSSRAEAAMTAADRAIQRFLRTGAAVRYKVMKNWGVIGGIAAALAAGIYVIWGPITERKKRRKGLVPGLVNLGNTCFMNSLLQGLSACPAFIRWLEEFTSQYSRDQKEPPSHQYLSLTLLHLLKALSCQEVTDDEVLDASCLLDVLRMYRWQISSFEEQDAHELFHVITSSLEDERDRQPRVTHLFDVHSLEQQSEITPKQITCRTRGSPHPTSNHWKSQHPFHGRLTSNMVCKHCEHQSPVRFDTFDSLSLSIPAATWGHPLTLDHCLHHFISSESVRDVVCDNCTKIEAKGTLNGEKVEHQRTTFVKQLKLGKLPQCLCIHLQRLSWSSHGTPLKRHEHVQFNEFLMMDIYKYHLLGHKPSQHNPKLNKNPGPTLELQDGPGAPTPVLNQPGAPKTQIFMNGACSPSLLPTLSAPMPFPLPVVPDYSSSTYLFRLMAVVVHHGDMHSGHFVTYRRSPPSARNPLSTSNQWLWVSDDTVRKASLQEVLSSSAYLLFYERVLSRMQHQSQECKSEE
`COc1ccc(-c2nc(CNC(=O)COc3ccc(C)cc3)cs2)cc1` was tested, and the IC50 was 36.3 µM. With `O=c1c(OC2O[C@H](CO)[C@H](O)[C@H](O)[C@H]2O)c(-c2ccc(O)cc2)oc2cc(O)cc(O)c12` (stereo partly drawn) the IC50 was > 50 µM (inactive). With `COc1cccc(CNC(=O)C2=Cc3cccc(OC)c3OC2)c1` the IC50 was > 50 µM (inactive). For `O=C(/C=C/c1ccc(F)cc1)Nc1ccc2c(c1)OCCO2`, the IC50 was > 50 µM (inactive). With `O=C(CCCC(=O)c1ccccc1)Nc1ccc(F)cc1` the IC50 was 31.4 µM. Work on `N#Cc1ccccc1Cn1c(=O)n(CCCCC(=O)NCCc2ccccc2)c(=O)c2ccccc21` yielded an IC50 of 14.4 µM. Work on `O=[N+]([O-])c1cccc(-c2noc(CSc3ccccc3)n2)c1` yielded an IC50 of 46.6 µM. For `O=C(NCC1CC1)C1CCCN(c2ccc(-c3ccccc3)nn2)C1` (stereo not drawn), the IC50 was > 50 µM (inactive). With `CC1CCc2sc(NC(=O)c3ccccc3Oc3ccccc3)c(C(N)=O)c2C1` (stereo not drawn) the IC50 was 3.28 µM. With `COc1ccc(C(C)NC(=O)c2cnc(-c3ccccc3)nc2-c2ccncc2)cc1` (stereo not drawn) the IC50 was > 50 µM (inactive). Molecule `Cc1ccc(-c2nc(NC(=O)Nc3ccc(Cl)cc3)sc2C)cc1` has an IC50 of 5.88 µM. With `Cc1cc(C)c2c(-n3cccc3)c(C(=O)NCCc3ccc(S(N)(=O)=O)cc3)sc2n1` the IC50 was > 50 µM (inactive). Work on `CC(OC(=O)c1ccc2c(c1)OCCO2)C(=O)NCC1CCCCC1` (stereo not drawn) yielded an IC50 of 31.3 µM. With `O=C(c1cscn1)N1CCC2(CC1)CC1(CO2)Nc2ccccc2-n2cccc21` (stereo not drawn) the IC50 was > 50 µM (inactive). For `CC(C)N1C[C@@H]2C[C@H](NS(=O)(=O)c3cccc(C#N)c3)CN2Cc2ccccc21`, the IC50 was > 50 µM (inactive). Molecule `O=C(CN1C=NC2=NS(=O)(=O)c3ccccc3N21)Nc1cc(F)ccc1F` has an IC50 of 36.6 µM. Molecule `CCc1ccccc1NC(=O)c1cc(-c2ccccn2)n[nH]1` has an IC50 of 24 µM. In the case of `Cc1cccc(NC(=O)Cn2c(N3CCOCC3)nc3cc(C)n(C)c3c2=O)c1`, the IC50 is reported as 20.9 µM. In the case of `O=C(c1cc(-c2ccc(Cl)cc2)n[nH]1)N1CCN(C(=O)c2ccco2)CC1`, the IC50 is reported as 31.7 µM. `Cc1nc2ccccc2nc1SCC(=O)Nc1ccc2c(c1)OCO2` was tested, and the IC50 was 40.3 µM. In the case of `CN1CCN(C(=O)c2cc(-c3ccn(CC4CC4)n3)n3ccccc23)CC1`, the IC50 is reported as > 50 µM (inactive). `COc1cc(COc2ccc3c(C)c(CC(=O)N4CC[C@@]5(O)CCCC[C@H]5C4)c(=O)oc3c2C)cc(OC)c1OC` showed an IC50 of 34.8 µM. With `COc1ccc(OC)c(NC(=O)CNC(=O)c2cc3c(OC)cccc3[nH]2)c1` the IC50 was > 50 µM (inactive). For `Cc1ccc(C)c(-c2cc3c(=O)n(Cc4noc(CN5CCCCC5)n4)ccn3n2)c1`, the IC50 was > 50 µM (inactive). In the case of `O=C(NCc1ccccc1Cl)c1ccc(-c2nnc(-c3ccccc3)o2)cc1`, the IC50 is reported as 1.52 µM. With `CC(C)CC[C@H]1O[C@@H](CC(=O)O)Cc2cc3c(c(O)c21)C(=O)c1sc(=O)n(C)c1C3=O` the IC50 was > 50 µM (inactive). With `O=S(=O)(Cc1nnc(-c2ccccc2C(F)(F)F)o1)c1ccc(Cl)cc1` the IC50 was > 50 µM (inactive). With `Cc1c(-c2ccc(C#N)cc2)oc2ccc(Br)cc2c1=O` the IC50 was 2.57 µM. `O=C(Nc1cccc(C(F)(F)F)c1)N1CCCn2c(nc3ccccc32)C1` was tested, and the IC50 was 19.7 µM. `CC1CCc2c(sc3nc(CC#N)[nH]c(=O)c23)C1` (stereo not drawn) was tested, and the IC50 was > 50 µM (inactive). Work on `COc1ccc(CCNC(=O)CCCCn2c(=O)c3ccccc3n(Cc3cccc(Cl)c3)c2=O)cc1OC` yielded an IC50 of 24.6 µM. With `CC(C)N1CC[C@@H]2[C@H](C1)CN2C(=O)Nc1cccc(F)c1` the IC50 was > 50 µM (inactive). In the case of `CC1CC(=O)c2c(cc3c(-c4c(O)cc(O)c5c(O)c6c(cc45)OC(C)CC6=O)c(O)cc(O)c3c2O)O1` (stereo not drawn), the IC50 is reported as > 50 µM (inactive). `COc1c2c(cc3cc(O)c4c(=O)cc(C)oc4c13)CCC2=O` was tested, and the IC50 was > 50 µM (inactive). Work on `O=C(NCCc1ccccc1F)c1cn2cc(Cl)ccc2n1` yielded an IC50 of 38.9 µM. `Cc1cccc(N2CCN(C(=O)c3nnn(-c4ccc(F)cc4)n3)CC2)c1` was tested, and the IC50 was > 50 µM (inactive). `CCn1c(SCC(=O)c2c(N)n(CC(C)C)c(=O)n(C)c2=O)nnc1-c1ccccc1` gave an IC50 of 9.77 µM. Work on `CCc1ccc(NC(=O)Cc2nnc3cc(-c4nc(C)no4)ccn23)cc1` yielded an IC50 of 2.37 µM. For `O=C(CSc1ccc(-c2cccc([N+](=O)[O-])c2)nn1)Nc1cccc(F)c1`, the IC50 was 2.11 µM. Molecule `CC(=O)Nc1ccc(S(=O)(=O)NCc2ccc(C(=O)NCCc3ccc(Cl)cc3)cc2)cc1` has an IC50 of 1.71 µM. For `COC(=O)c1ccc2c(=O)n(CCCCCC(=O)NCc3cccc(Cl)c3)c(=O)[nH]c2c1`, the IC50 was 1.69 µM. With `Cc1ccc2c(c1)-c1c(c(C(=O)N3CCN(c4ccccc4)CC3)nn1C)CS2` the IC50 was > 50 µM (inactive). For `O=C(Nc1cccc(Br)c1)c1cc(-c2cccnc2)n[nH]1`, the IC50 was 1.55 µM. `Cc1cccc(NC(=O)Cn2c(-c3cnccn3)nc(C)c(C)c2=O)c1C` was tested, and the IC50 was > 50 µM (inactive). Work on `O=C1CC(O)C(C2=CC(=O)c3c(O)cccc3C2=O)O1` (stereo not drawn) yielded an IC50 of 4.46 µM. With `O=C(Nc1ccc(F)c(Cl)c1)c1ccc(N2CCCCS2(=O)=O)cc1Cl` the IC50 was > 50 µM (inactive). `COc1ccc2c(c1)CCc1c(C(=O)NCc3cccnc3)noc1-2` was tested, and the IC50 was 19.4 µM. In the case of `Cn1c(CCN2CCCC2)nc2cc(NS(=O)(=O)c3ccccc3)ccc21`, the IC50 is reported as > 50 µM (inactive). In the case of `O=C(Nc1ccccc1)c1cn2c3c(cccc3c1=O)CC2`, the IC50 is reported as > 50 µM (inactive). `Cc1nnc(NCc2cccnc2)c2c1nnn2Cc1ccccc1Cl` gave an IC50 of 28.3 µM. For `O=C(Cn1c(=O)n(Cc2ccccc2)c(=O)c2ncccc21)NCc1ccccc1Cl`, the IC50 was > 50 µM (inactive). `Cc1nc2cccnc2n1C1CCN(C(=O)c2cc3cc(Cl)ccc3[nH]2)C1` (stereo not drawn) was tested, and the IC50 was > 50 µM (inactive). For `Cc1ccc(NC(=O)CNC(=O)c2cc3ccccc3o2)cc1`, the IC50 was 17.7 µM. For `CCOC(=O)c1cn(C2CC2)c2cc(N3CCNCC3)c([N+](=O)[O-])cc2c1=O`, the IC50 was > 50 µM (inactive). With `COc1ccc(C(C(=O)NCc2ccccc2)N(C(=O)CCN2CCc3ccccc32)c2ccc(C)c(C)c2)cc1` (stereo not drawn) the IC50 was > 50 µM (inactive). `COc1ccc(NC(=O)c2ccccc2OCC(=O)Nc2ccccc2C(F)(F)F)c(C)c1` showed an IC50 of 28.8 µM. Work on `O=C(Cn1nc2c3c4c(sc3ncn2c1=O)CCCCC4)Nc1ccc(Cl)cc1F` yielded an IC50 of 1.49 µM. With `COc1cccc(C(=O)NCc2[nH]nc3ccccc23)c1` the IC50 was > 50 µM (inactive). `C[C@@H](C(=O)NCc1ccc(F)cc1)N1C(=O)N2CCc3c([nH]c4ccccc34)[C@@]2(C)C1=O` gave an IC50 of 4.05 µM. `CCCc1nc2sc3c(N(CC)CC)ncnc3c2c2c1CCC2` was tested, and the IC50 was > 50 µM (inactive). `COC(=O)c1ccccc1NC(=O)CSc1nnc(-c2ccc(C(C)(C)C)cc2)n1C1CCCC1` showed an IC50 of 33.8 µM. `CCn1cc2c(n1)c(=O)n(Cc1ccccc1)c(=O)n2CC(=O)Nc1ccc(OC)cc1` gave an IC50 of 2.58 µM. For `O=C(c1cn(-c2cccc(F)c2)nn1)N1CCc2ccccc2C1`, the IC50 was 16.9 µM. With `COc1cccc(S(=O)(=O)N2CCn3nc(C(C)(C)C)cc3C2)c1` the IC50 was 24.6 µM. `O=C(Nc1ccc(F)cc1F)c1csc(-c2ccccc2)n1` was tested, and the IC50 was 22.6 µM. With `CCCCc1nc2sc3c(SCC(=O)NCc4ccccc4)ncnc3c2c2c1CCC2` the IC50 was > 50 µM (inactive). Molecule `O=C(COc1cc([N+](=O)[O-])cc2cccnc12)NCCC1=CCCCC1` has an IC50 of 28.3 µM. With `O=C(CN1C(=O)C2CCCC2=Nc2ccccc21)Nc1ccc(F)cc1F` (stereo not drawn) the IC50 was 36.4 µM. For `Cc1ccc(-n2c(=O)[nH]c3c(C(N)=O)nc(-c4cccnc4)nc32)cc1`, the IC50 was 3.37 µM. With `CCCn1cc(C(=O)N2CCC3(CC2)CC2(CO3)Nc3ccccc3-n3cccc32)c(C)n1` (stereo not drawn) the IC50 was > 50 µM (inactive). `Cc1nc2sc(C(=O)Nc3ccccc3Br)c(N)c2c(C)c1C` showed an IC50 of 1.2 µM. With `O=C(Nc1ccc2c(c1)OCCO2)C1CCN(C(=O)c2ccccc2)CC1` the IC50 was > 50 µM (inactive). Work on `COCCCn1c(SCC(=O)Nc2ccccc2C(=O)OC)nc2ccccc2c1=O` yielded an IC50 of 25.7 µM. `CCC(=O)N1c2ccccc2NC2=C(C(=O)CC(c3ccccc3OCc3ccccc3)C2)C1c1ccccc1` (stereo not drawn) showed an IC50 of 2.39 µM. In the case of `O=C(Cn1ccc2ccc(N3CCOCC3)nc21)NCc1ccccc1F`, the IC50 is reported as > 50 µM (inactive). `CCc1ccc2[nH]c3c(c(=O)c2c1)CN(CC(=O)NCc1ccc2c(c1)OCO2)CC3` was tested, and the IC50 was 35.5 µM. `Cc1ccc(-c2noc(-c3nnc(SCC(=O)NC4CCCC4)n3C)n2)cc1` gave an IC50 of 2.22 µM. With `COc1cc(OC)c2c(c1)C(=O)C1=C(COC(C)(O)C1)C2=O` (stereo not drawn) the IC50 was > 50 µM (inactive). Work on `Cc1cccc(NC(=O)CSc2nnc(-c3n[nH]c4c3CCC4)n2N)c1C` yielded an IC50 of 20.2 µM. Work on `COc1ccccc1NC(=O)Nc1ccc(NC(=O)c2ccccc2O)cc1` yielded an IC50 of 29 µM. Molecule `O=C1CC(C(=O)Nc2ccccc2F)n2nc(-c3ccccc3)cc2N1` (stereo not drawn) has an IC50 of 24.3 µM. For `O=C(OCc1cccc(Cl)c1)c1ccc2ccccc2n1`, the IC50 was > 50 µM (inactive). In the case of `O=C(Nc1ncc2c(n1)-c1ccccc1CC2)C1CC1`, the IC50 is reported as 17.5 µM. `CN1C(=O)COc2ccc(NC(=O)c3cc(-c4ccccc4)on3)cc21` gave an IC50 of 14.1 µM. In the case of `COc1ccc(S(=O)(=O)N(C)Cc2cccs2)cc1OC`, the IC50 is reported as > 50 µM (inactive). `CC(C)(C)C(=O)C1C2C(=O)N(c3ccc4c(c3)OCO4)C(=O)C2C2c3ccccc3C=CN12` (stereo not drawn) was tested, and the IC50 was > 50 µM (inactive). `Cc1ccc(NC(=O)c2ccc3nn(CC(=O)Nc4ccc(F)cc4F)c(=O)n3c2)cc1` showed an IC50 of 2.43 µM. `Cc1cc(C#N)c2c(C)ccc(C(C)C)cc1-2` was tested, and the IC50 was > 50 µM (inactive). For `COc1ccccc1-c1nc2c3c(C)c(C)n(Cc4cccnc4)c3ncn2n1`, the IC50 was > 50 µM (inactive). For `COc1cc(OC)cc(-n2c(=O)c3sccc3n(CC(=O)Nc3ccc(C)cc3)c2=O)c1`, the IC50 was 5.2 µM. `CCCC[C@@H](C)/C=C(C)/C=C(\C)C(=O)NC1=C[C@](O)(/C=C/C=C/C=C/C(=O)NC2=C(O)CCC2=O)[C@@H]2O[C@@H]2C1=O` gave an IC50 of 4.76 µM. Molecule `COc1cc(NC(=O)c2ccc3c(c2)OCO3)ccc1-c1cc2ccccc2oc1=O` has an IC50 of 0.363 µM. With `C=C1CCC2[C@](C)(CCC[C@]2(C)C(=O)OC)[C@H]1CCc1ccoc1CNC(C)C` (stereo partly drawn) the IC50 was > 50 µM (inactive). `CC(=O)c1ccc(N2C(=O)N(Cc3cccc([N+](=O)[O-])c3)c3ccccc3S2(=O)=O)cc1` was tested, and the IC50 was > 50 µM (inactive). `Fc1ccccc1N1CCN(c2ncc3c(n2)CCN(Cc2ccccn2)C3)CC1` was tested, and the IC50 was > 50 µM (inactive). For `COc1cccc(N2CCN(C(=O)CCNS(=O)(=O)c3ccc4c(c3)CCC(=O)N4)CC2)c1`, the IC50 was > 50 µM (inactive). `Cc1cc(C)nc(-n2nc(C)c3c2NC(=O)CSC3c2ccccc2F)n1` (stereo not drawn) was tested, and the IC50 was 29.5 µM. With `N#Cc1ccc(NC(=O)Nc2cccn(Cc3ccccc3Br)c2=O)cc1` the IC50 was > 50 µM (inactive).
